Measured values taken from patent US4112097A, “Antihypertensive agents” (Abbott Laboratories, priority 1977, dated 1978).
Where a name gives a salt, the structure may show the parent alone. Read-outs that look alike come from different tables or passages of the source.

Key:
[1] = Acute intravenous toxicity in mice; assay type: in vivo, mouse; details: mouse, in vivo, iv, mice male and female, read-out: LD50 (95% Confidence Limits)
[2] = tested on: mice (male and female); test: Acute intravenous toxicity in mice; assay type: in vivo, mouse; details: mice, administered within twenty minutes following preparation
[3] = physchem; details: water
Procedure: The water in the filtrate was removed in vacuo and the residue weighed and found to be 16.7 mg.

[4] = tested on: spontaneously hypertensive (SH) rats; test: Antihypertensive effect (blood pressure and heart rate) in spontaneously hypertensive rats; assay type: in vivo, rat; details: for Percent Change BP (blood pressure) / Percent Change HR (heart rate): N=4, mean
Procedure: The screening is conducted as follows:
Male spontaneously hypertensive (SH) rats are trained to be restrained in a wire mesh cylinder in a warming box, at least two training cycles being conducted before testing. The rats are warmed for about 1/2 hour period to blood pressure measurement, the warming box being maintained at a constant temperature of 36° C.
An occluding cuff attached to the programed sphymomanometer is placed near the base of the tail of each rat and the pressure in the cuff is increased automatically from 0 to 250 milimeters of mercury (mm Hg) at a rate of 10 mm Hg per second. The total time for each cycle of inflation and deflation of the cuff is 50 seconds and the interval between cycles is one minute.
A photocell is placed distal to the cuff to record the pulses due to forward motion of blood flow with each heart beat. As the pressure in the cuff increases, the pulse disappears completely at a point where cuff pressure equals or exceeds the arterial blood pressure and it reappears during deflation at approximately the same pressure. Five interference free signals for deflation are recorded for each rat. Rats with a blood pressure of 180 mm Hg or more during the control period are used in the study. Blood pressure and heart rate readings are recorded on a model VII Grass polygraph at intervals of 1, 3, 5 and 24 hours after administration of the drug.

[5] = cited from earlier work
[6] = background statement on prazosin; cited from earlier work
[7] = intraperitoneal 0.3 mg/kg, 1 hour
[8] = intraperitoneal 0.3 mg/kg, 3 hours
[9] = intraperitoneal 0.3 mg/kg, 5 hours
[10] = intraperitoneal 0.3 mg/kg, 24 hours
[11] = intraperitoneal 1 mg/kg, 1 hour
[12] = intraperitoneal 1 mg/kg, 3 hours
[13] = intraperitoneal 1 mg/kg, 5 hours
[14] = intraperitoneal 1 mg/kg, 24 hours
[15] = intraperitoneal 3 mg/kg, 1 hour
[16] = intraperitoneal 3 mg/kg, 3 hours
[17] = intraperitoneal 3 mg/kg, 5 hours
[18] = intraperitoneal 3 mg/kg, 24 hours
[19] = intraperitoneal 10 mg/kg, 1 hour
[20] = intraperitoneal 10 mg/kg, 3 hours
[21] = intraperitoneal 10 mg/kg, 5 hours
[22] = intraperitoneal 10 mg/kg, 24 hours
[23] = intraperitoneal 30 mg/kg, 1 hour
[24] = intraperitoneal 30 mg/kg, 3 hours
[25] = intraperitoneal 30 mg/kg, 5 hours
[26] = intraperitoneal 30 mg/kg, 24 hours

COc1cc2nc(N3CCN(C(=O)C4CCCO4)CC3)nc(N)c2cc1OC (stereo not shown) [2[4-(Tetrahydro-2-Furoyl)Piperazinyl]-4-Amino-6,7-Dimethoxyquinazoline Hydrochloride]
LD50 ([1]; injected 24 hours after formulation (B)): 253 mg/kg | LD50 ([1]; injected immediately after formulation (A)): 259 mg/kg | toxicity in comparison to the compound of Formula I [2]: significantly lower toxicity than the compound of Formula I | solubility [3]: 590 mg/mL | duration of the effect (decrease in blood pressure) ([4]; intraperitoneal 30 mg./kg.): greater than 24 hours | fall in blood pressure ([4]; oral, 3 and 10 mg./kg., up to approximately): ≤ 40%

COc1cc2nc(N3CCN(C(=O)c4ccco4)CC3)nc(N)c2cc1OC [Formula I, 2-[4-(2-furoyl)-1-piperazine-1-yl]-4-amino-6,7-dimethoxyquinazoline, reference compound]
fall in blood pressure in words ([5]; The Lancet, May 10, 1975): profound fall in blood pressure | toxicity in words ([5]; The Lancet, May 10, 1975): significant toxicity | collapse with loss of consciousness ([5]; following use of the drug, The Lancet and British Medical Journal, June 28, 1975): Sudden collapse with loss of consciousness for periods ranging from a few minutes to one hour | Percent Change BP (blood pressure) [4, 7]: -20.8% | Percent Change HR (heart rate) [4, 7]: -2.5% | Percent Change BP (blood pressure) [4, 8]: -18.3% | Percent Change HR (heart rate) [4, 8]: -0.5% | Percent Change BP (blood pressure) [4, 9]: -13.8% | Percent Change HR (heart rate) [4, 9]: -12.0% | Percent Change BP (blood pressure) [4, 10]: -4.3% | Percent Change HR (heart rate) [4, 10]: -5.0% | Percent Change BP (blood pressure) [4, 11]: -20.0% | Percent Change HR (heart rate) [4, 11]: 2.8% | Percent Change BP (blood pressure) [4, 12]: -15.3% | Percent Change HR (heart rate) [4, 12]: 1.8% | Percent Change BP (blood pressure) [4, 13]: -13.5% | Percent Change HR (heart rate) [4, 13]: 10.5% | Percent Change BP (blood pressure) [4, 14]: 3.5% | Percent Change HR (heart rate) [4, 14]: 12.8% | Percent Change BP (blood pressure) [4, 15]: -45.0% | Percent Change HR (heart rate) [4, 15]: 0.3% | Percent Change BP (blood pressure) [4, 16]: -31.5% | Percent Change HR (heart rate) [4, 16]: -6.5% | Percent Change BP (blood pressure) [4, 17]: -26.3% | Percent Change HR (heart rate) [4, 17]: -17.0% | Percent Change BP (blood pressure) [4, 18]: -2.3% | Percent Change HR (heart rate) [4, 18]: -4.0% | Percent Change BP (blood pressure) [4, 19]: -41.0% | Percent Change HR (heart rate) [4, 19]: 5.8% | Percent Change BP (blood pressure) [4, 20]: -34.0% | Percent Change HR (heart rate) [4, 20]: 14.8% | Percent Change BP (blood pressure) [4, 21]: -27.0% | Percent Change HR (heart rate) [4, 21]: 7.3% | Percent Change BP (blood pressure) [4, 22]: -13.0% | Percent Change HR (heart rate) [4, 22]: -7.5% | Percent Change BP (blood pressure) [4, 23]: -43.3% | Percent Change HR (heart rate) [4, 23]: -1.8% | Percent Change BP (blood pressure) [4, 24]: -48.5% | Percent Change HR (heart rate) [4, 24]: 4.8% | Percent Change BP (blood pressure) [4, 25]: -55.5% | Percent Change HR (heart rate) [4, 25]: 3.5% | Percent Change BP (blood pressure) [4, 26]: -24.5% | Percent Change HR (heart rate) [4, 26]: -6.5% | Percent Change BP (blood pressure) ([4]; oral 0.03 mg/kg, 1 hour): -4.5% | Percent Change HR (heart rate) ([4]; oral 0.03 mg/kg, 1 hour): 4.8% | Percent Change BP (blood pressure) ([4]; oral 0.03 mg/kg, 3 hours): -0.8% | Percent Change HR (heart rate) ([4]; oral 0.03 mg/kg, 3 hours): -9.3% | Percent Change BP (blood pressure) ([4]; oral 0.03 mg/kg, 5 hours): -11.5% | Percent Change HR (heart rate) ([4]; oral 0.03 mg/kg, 5 hours): -9.8% | Percent Change BP (blood pressure) ([4]; oral 0.03 mg/kg, 24 hours): 1.3% | Percent Change HR (heart rate) ([4]; oral 0.03 mg/kg, 24 hours): -2.0% | Percent Change BP (blood pressure) ([4]; oral 0.1 mg/kg, 1 hour): -9.8% | Percent Change HR (heart rate) ([4]; oral 0.1 mg/kg, 1 hour): 13.5% | Percent Change BP (blood pressure) ([4]; oral 0.1 mg/kg, 3 hours): -17.5% | Percent Change HR (heart rate) ([4]; oral 0.1 mg/kg, 3 hours): 18.3% | Percent Change BP (blood pressure) ([4]; oral 0.1 mg/kg, 5 hours): -22.8% | Percent Change HR (heart rate) ([4]; oral 0.1 mg/kg, 5 hours): 1.5% | Percent Change BP (blood pressure) ([4]; oral 0.1 mg/kg, 24 hours): -1.3% | Percent Change HR (heart rate) ([4]; oral 0.1 mg/kg, 24 hours): 3.5% | Percent Change BP (blood pressure) ([4]; oral 0.3 mg/kg, 1 hour): -32.8% | Percent Change HR (heart rate) ([4]; oral 0.3 mg/kg, 1 hour): -5.5% | Percent Change BP (blood pressure) ([4]; oral 0.3 mg/kg, 3 hours): -33.8% | Percent Change HR (heart rate) ([4]; oral 0.3 mg/kg, 3 hours): -5.0% | Percent Change BP (blood pressure) ([4]; oral 0.3 mg/kg, 5 hours): -30.0% | Percent Change HR (heart rate) ([4]; oral 0.3 mg/kg, 5 hours): -13.8% | Percent Change BP (blood pressure) ([4]; oral 0.3 mg/kg, 24 hours): -12.3% | Percent Change HR (heart rate) ([4]; oral 0.3 mg/kg, 24 hours): 3.0% | Percent Change BP (blood pressure) ([4]; oral 1 mg/kg, 1 hour): -31.8% | Percent Change HR (heart rate) ([4]; oral 1 mg/kg, 1 hour): 2.0% | Percent Change BP (blood pressure) ([4]; oral 1 mg/kg, 3 hours): -17.8% | Percent Change HR (heart rate) ([4]; oral 1 mg/kg, 3 hours): 6.8% | Percent Change BP (blood pressure) ([4]; oral 1 mg/kg, 5 hours): -19.5% | Percent Change HR (heart rate) ([4]; oral 1 mg/kg, 5 hours): -1.0% | Percent Change BP (blood pressure) ([4]; oral 1 mg/kg, 24 hours): -2.3% | Percent Change HR (heart rate) ([4]; oral 1 mg/kg, 24 hours): 10.0% | Percent Change BP (blood pressure) ([4]; oral 3 mg/kg, 1 hour): -19.3% | Percent Change HR (heart rate) ([4]; oral 3 mg/kg, 1 hour): 0.5% | Percent Change BP (blood pressure) ([4]; oral 3 mg/kg, 3 hours): -19.8% | Percent Change HR (heart rate) ([4]; oral 3 mg/kg, 3 hours): 11.5% | Percent Change BP (blood pressure) ([4]; oral 3 mg/kg, 5 hours): -20.5% | Percent Change HR (heart rate) ([4]; oral 3 mg/kg, 5 hours): 1.5% | Percent Change BP (blood pressure) ([4]; oral 3 mg/kg, 24 hours): 5.3% | Percent Change HR (heart rate) ([4]; oral 3 mg/kg, 24 hours): 6.0% | Percent Change BP (blood pressure) ([4]; oral 10 mg/kg, 1 hour): -23.8% | Percent Change HR (heart rate) ([4]; oral 10 mg/kg, 1 hour): 3.0% | Percent Change BP (blood pressure) ([4]; oral 10 mg/kg, 3 hours): -22.3% | Percent Change HR (heart rate) ([4]; oral 10 mg/kg, 3 hours): 12.3% | Percent Change BP (blood pressure) ([4]; oral 10 mg/kg, 5 hours): -22.0% | Percent Change HR (heart rate) ([4]; oral 10 mg/kg, 5 hours): -0.8% | Percent Change BP (blood pressure) ([4]; oral 10 mg/kg, 24 hours): -2.3% | Percent Change HR (heart rate) ([4]; oral 10 mg/kg, 24 hours): 23.3% | Percent Change BP (blood pressure) ([4]; oral 30 mg/kg, 1 hour): -34.0% | Percent Change HR (heart rate) ([4]; oral 30 mg/kg, 1 hour): -3.8% | Percent Change BP (blood pressure) ([4]; oral 30 mg/kg, 3 hours): -31.3% | Percent Change HR (heart rate) ([4]; oral 30 mg/kg, 3 hours): -11.5% | Percent Change BP (blood pressure) ([4]; oral 30 mg/kg, 5 hours): -29.3% | Percent Change HR (heart rate) ([4]; oral 30 mg/kg, 5 hours): -14.8% | Percent Change BP (blood pressure) ([4]; oral 30 mg/kg, 24 hours): -14.5% | Percent Change HR (heart rate) ([4]; oral 30 mg/kg, 24 hours): -1.5% | solubility in words [6]: very low solubility
